{"source": "patent US20080090254A1", "about": "“Method for assessing proliferation inhibiting effect of inhibitor, and method for determining sensitivity of tumor cell to inhibitor” (SYSMEX CORPORATION, priority 2006, published 2008)", "key": {"[1]": {"test_system": "receptor tyrosine kinase group derived from a cell membrane of MDA-MB468", "assay": "activity of receptor tyrosine kinase group, sample for reaction MB468 (ELISA, GST-poly(Glu, Tyr) substrate)", "format": "biochemical", "conditions": "for effect of inhibiting the activity of a receptor tyrosine kinase group, inhibitor combined with 4557W: Example 2, FIG. 6, 400 μM inhibitor combined with 400 μM 4557W; for effect of inhibiting the activity of a receptor tyrosine kinase group, inhibitor alone: Example 2, FIG. 6, treating solution containing 400 μM inhibitor alone; for inhibition of the activity of the receptor tyrosine kinase group: Example 1, FIG. 3, treating solution containing 400 μM inhibitor, versus sample not treated = 100%", "procedure": "(§1) From five kinds of cultured cells (MDA-MB453, MDA-MB468, SKBr3, Hela and HT29), a sample for reaction was prepared. Specifically, the cultured cell and 1 ml of a cell treating solution (containing 20 mM HEPES pH7.4, 0.2% PI, 10% glycerol, 200 μM Na3VO4, and 50 mM NaF) were mixed. By pressing using a pestle, a cell membrane of the resulting mixed solution was destructed to prepare a cell solution. The resulting cell solution was centrifuged, a supernatant was discarded, and a precipitate was recovered. The recovered precipitate and a cell membrane solubilizing solution (containing 20 mM HEPES pH7.4, 1% NP40, 0.2% PI, 10% glycerol, 200 μM Na3VO4, and 50 mM NaF) were mixed. A cell membrane in the mixed solution obtained by pressing using a pestle was solubilized, and centrifuged to recover a supernatant. This supernatant was used as a sample for reaction. MDA-MB453 is a cultured cell derived from a breast cancer, and a sample for reaction prepared from this cell is designated as sample for reaction MB453. MDA-MB468 is a cultured cell derived from a breast cancer, and a sample for reaction prepared from this cell is designated as sample for reaction MB468. SKBr3 is a cultured cell derived from a breast cancer, and a sample for reaction prepared from this cell is designated as sample for reaction SKBr3. Hela is a cultured cell derived from a uterine cervical cancer, and a sample for reaction prepared from this cell is designated sample for reaction Hela. HT29 is a cultured cell derived from a large intestine cancer, and a sample for reaction prepared from this cell is designated sample for reaction HT29.\nAs a plate for ELISA, a glutathione-coated plate (Reacti-Bind Clear Glutathione Coated Plates, 8-well Strip (PIERCE)) was used. First, each well of the plate was washed with TBS-T (containing 25 mM Tris, 150 mM NaCl and 0.05% Tween 20) three times. Then, into each well was placed 50 μl of the substrate solution 1 containing the GST-poly (Glu, Tyr) substrate prepared in the 1 (TBS containing 5 μg/ml GST-poly (Glu, Tyr) substrate), and this was incubated at 25° C. for 1 hour while slightly shaken. After incubation, each well was washed with TBS-T two times. Further, each well was washed with 20 mM HEPES pH7.4 (containing 0.05% Tween 20) once. Like this, the GST-poly (Glu, Tyr) substrate was bound to a surface of a well of the plate for ELISA. This plate for ELISA was used in the following enzyme reaction.\nFirst, 25 μl of the sample for reaction MB453 was dispensed into 6 tubes, respectively. Among 6 tubes, to the first tube was added 25 μl of a treating solution containing 400 μM (20 mM HEPES pH7.4, 20 mM MnCl2, 2 mM DTT, 1% NP40, 10% glycerol, 200 μM Na3VO4, 50 mM NaF, 400 μM ATP). To the second tube was added 25 μl of a treating solution containing 400 μM AG1478. To the third tube was added 25 μl of a treating solution containing 400 μM 4557W. To the fourth tube was added 25 μl of a treating solution containing 400 μM PDGF Receptor Tyrosine Kinase Inhibitor III. To the fifth tube was added 25 μl of a treating solution containing 400 μM VEGF Receptor Tyrosine Kinase Inhibitor III. To the sixth tube was added 25 μl of a treating solution containing no inhibitor. The thus obtained solutions are used as a reaction solution. Similarly, using the sample for reaction MB468, the sample for reaction SKBr3, the sample for reaction Hela and the sample for reaction HT29, samples for reaction were prepared. In order to suppress the enzyme activity of receptor tyrosine kinase, this working was performed under the condition of not higher than 4° C.\nFifty microliter of each reaction solution was placed into separate wells of the plate for ELISA, and this was incubated at 25° C. for about 30 minutes. After incubation, 100 μl of a reaction stopping solution (TBS-T containing 1 mM EDTA) was added to each well, followed by further washing with TBS-T three times. Then, each well was washed with 300 μl of StartingBlock T20 (TBS) Blocking Buffer (PIERCE). […]"}, "MDA-MB468 tumor": {"test_system": "MDA-MB468 tumor", "assay": "proliferation of tumor cell in a mouse body (tumor volume)", "format": "in vivo", "conditions": "Comparative Example 2, FIG. 5; BALB/c nu/nu mouse with MDA-MB468 tumor; 30 mg/kg/day injected for 7 days; compared with DMSO", "procedure": "MDA-MB468 used in Example 1 was cultured in a culturing solution (DMEM-F12 (Sigma) containing 10% FBS (Hyclone)) so that it became 60% confluent in a 225 cm^2 flask. The resulting cultured cells were suspended to about 1×10^7 in 100 μl of DMEM-F12, to prepare a MDA-MB468 cell solution.\nA fat pad of a 10-week old female mouse (BALB/c nu/nu) was injected with 100 μl of the MDA-MB468 cell solution. After 14 days, it was confirmed that a tumor became large in a mouse body. Like this, a tumor was formed in three mice bodies.\nFourteen days after injection with the MDA-MB468 cell solution, a mouse in which a tumor had been generated was injected with an inhibitor solution. Specifically, AG1478 used in Example 1 was dissolved in 100 μl of dimethyl sulfoxide (DMSO, Sigma) to prepare an inhibitor solution 1. And, the inhibitor solution 1 was injected into a mouse to a dose of the inhibitor of 30 mg/kg/day. […]\nThe day when the mouse was first injected with an inhibitor solution was regarded as the first day after injection. And, on the first day, the third day, the fifth day, and the eighth day after injection, a volume of a tumor in a mouse body was measured. As a volume of a tumor, a long diameter and a short diameter of a tumor were measured, and a volume was calculated from a long diameter and a short diameter on the assumption that a shape of a tumor was an elliptic sphere."}, "[2]": {"test_system": "receptor tyrosine kinase group derived from a cell membrane of HT29", "assay": "activity of receptor tyrosine kinase group, sample for reaction HT29 (ELISA, GST-poly(Glu, Tyr) substrate)", "format": "biochemical", "conditions": "Example 1, FIG. 3, treating solution containing 400 μM inhibitor, versus sample not treated = 100%", "procedure": "as §1, with “Hela is a cultured cell derived from a uterine cervical cancer, and a sample for reaction prepared from this cell is designated sample for reaction Hela. HT29 is a cultured cell derived from a large intestine cancer, and a sample for reaction prepared from this cell is designated sample for reaction HT29.” left out"}, "[3]": {"test_system": "receptor tyrosine kinase group derived from a cell membrane of MDA-MB453", "assay": "activity of receptor tyrosine kinase group, sample for reaction MB453 (ELISA, GST-poly(Glu, Tyr) substrate)", "format": "biochemical", "conditions": "Example 1, FIG. 3, treating solution containing 400 μM inhibitor, versus sample not treated = 100%", "procedure": "as §1, with “Hela is a cultured cell derived from a uterine cervical cancer, and a sample for reaction prepared from this cell is designated sample for reaction Hela. HT29 is a cultured cell derived from a large intestine cancer, and a sample for reaction prepared from this cell is designated sample for reaction HT29.” left out"}, "HT29": {"test_system": "HT29", "assay": "cell proliferation, CellTiter-Glo Luminescent Cell Viability Assay", "format": "cell-based", "conditions": "Comparative Example 1, FIG. 4, final concentration 1 × 10^−5 M (Table 1), cultured 3 days", "procedure": "(§2) Cells were seeded on each well of a plate for culturing (96 Well Solid White Flat Bottom Polystyrene TC-Treated Microplates, Corning) at 1000 cells per well, and cultured at 37° C. for 24 hours. After culturing, an inhibitor was added to each well, and cells were further cultured at 37° C. for 3 days. As cells, five kinds of cultured cells used in Example 1 (MDA-MB453, MDA-MB468, SKBr3, Hela and HT29) were used. As the inhibitor, five kinds of inhibitors used in Example 1 (PD153035, AG1478, 4557W, PDGF Receptor Tyrosine Kinase Inhibitor III and VEGF Receptor Tyrosine Kinase Inhibitor III) were used. In Table 1, the final concentration is a concentration when the inhibitor is added to a well, and is mixed with cells.\n(§3) For measuring cell proliferation, CellTiter-Glo Luminescent Cell Viability Assay (Promega) was used. This is a reagent kit which can quantitate ATP derived from a cell having the metabolism activity in a medium to measure a viable cell. First, according to a protocol attached to the kit, a measurement reagent was prepared. The measurement reagent was added at 100 μl per well, and a culturing plate was stirred with a shaker for 2 minutes. After stirring, the plate was allowed to stand for 10 minutes, and […] was measured using GENios (TECAN). Since […] is generated in proportion with an amount of ATP derived from a cell having the metabolism activity in a medium, a viable cell in a medium can be measured by measuring […].\n(§4) Based on the measurement result, radar charts of FIG. 4 were produced. FIG. 4 contains a radar chart in the case of use of MDA-MB453, a radar chart in the case of use of MDA-MB468, a radar chart in the case of use of SKBr3, a radar chart in the case of use of Hela, and a radar chart in the case of use of HT29. These radar charts show a proportion of a measured value obtained by treating a cell with an inhibitor, letting a measured value when a cell was not treated with an inhibitor to be 100%. In radar charts, 1 is the case where a cell was treated with PD153035, 2 is the case where a cell was treated with AG1478, 3 is the case where a cell was treated with 4557W, 4 is the case where a cell was treated with PDGF Receptor Tyrosine Kinase Inhibitor III, and 5 is the case where a cell was treated with VEGF Receptor Tyrosine Kinase Inhibitor III."}, "MDA-MB468": {"test_system": "MDA-MB468", "assay": "cell proliferation, CellTiter-Glo Luminescent Cell Viability Assay", "format": "cell-based", "conditions": "cultured 3 days", "procedure": "as §2, §3, §4"}, "MDA-MB453": {"test_system": "MDA-MB453", "assay": "cell proliferation, CellTiter-Glo Luminescent Cell Viability Assay", "format": "cell-based", "conditions": "Comparative Example 1, FIG. 4, final concentration 1 × 10^−5 M (Table 1), cultured 3 days", "procedure": "as §2, §3, §4"}, "SKBr3": {"test_system": "SKBr3", "assay": "cell proliferation, CellTiter-Glo Luminescent Cell Viability Assay", "format": "cell-based", "conditions": "Comparative Example 1, FIG. 4, final concentration 1 × 10^−5 M (Table 1), cultured 3 days", "procedure": "as §2, §3, §4"}, "[4]": {"test_system": "receptor tyrosine kinase group derived from a cell membrane of SKBr3", "assay": "activity of receptor tyrosine kinase group, sample for reaction SKBr3 (ELISA, GST-poly(Glu, Tyr) substrate)", "format": "biochemical", "conditions": "Example 1, FIG. 3, treating solution containing 400 μM inhibitor, versus sample not treated = 100%", "procedure": "as §1, with “Hela is a cultured cell derived from a uterine cervical cancer, and a sample for reaction prepared from this cell is designated sample for reaction Hela. HT29 is a cultured cell derived from a large intestine cancer, and a sample for reaction prepared from this cell is designated sample for reaction HT29.” left out"}, "[5]": {"conditions": "Comparative Example 1, FIG. 4, final concentration 1 × 10^−6 M (Table 1)"}}}
{"smiles": "COc1cc2ncnc(N3CCN(C(=O)Nc4ccc(Oc5ccccc5)cc4)CC3)c2cc1OC", "values": [{"measurement": "effect of inhibiting the activity of a receptor tyrosine kinase group, inhibitor combined with 4557W", "setting": "[1]", "result": "high activity inhibiting effect"}, {"measurement": "effect of inhibiting the activity of a receptor tyrosine kinase group, inhibitor alone", "setting": "[1]", "result": "little effect"}]}
{"smiles": "CCCNC(=O)Nc1ccc(Oc2ncnc3cc(OC)c(OC)cc23)cc1Cl", "values": [{"measurement": "effect of inhibiting the activity of a receptor tyrosine kinase group, inhibitor combined with 4557W", "setting": "[1]", "result": "high activity inhibiting effect"}, {"measurement": "effect of inhibiting the activity of a receptor tyrosine kinase group, inhibitor alone", "setting": "[1]", "result": "little effect"}]}
{"smiles": "COc1cc2ncnc(Nc3ccc(OCc4ccccc4)cc3)c2cc1OC", "note": "[4557W]", "values": [{"measurement": "inhibition of proliferation of a tumor cell in a mouse body (change in volume of tumor)", "setting": "MDA-MB468 tumor", "result": "recognized"}, {"measurement": "inhibition of the activity of the receptor tyrosine kinase group", "setting": "[2]", "result": "inhibited"}, {"measurement": "inhibition of the activity of the receptor tyrosine kinase group", "setting": "[3]", "result": "inhibited"}, {"measurement": "inhibition of proliferation", "setting": "HT29", "result": "recognized"}, {"measurement": "inhibition of proliferation", "setting": "MDA-MB468; Comparative Example 1, FIG. 4, final concentration 1 × 10^−5 M (Table 1)", "result": "recognized"}, {"measurement": "inhibition of proliferation", "setting": "MDA-MB453", "result": "recognized"}, {"measurement": "inhibition of proliferation", "setting": "SKBr3", "result": "recognized"}, {"measurement": "inhibition of the activity of the receptor tyrosine kinase group", "setting": "[1]", "result": "inhibited"}, {"measurement": "effect of inhibiting the activity of a receptor tyrosine kinase group, inhibitor alone", "setting": "[1]", "result": "highest activity inhibiting effect"}, {"measurement": "inhibition of the activity of the receptor tyrosine kinase group", "setting": "[4]", "result": "inhibited"}]}
{"smiles": "COc1cc2ncnc(Nc3cccc(Cl)c3)c2cc1OC", "note": "[AG1478]", "values": [{"measurement": "inhibition of proliferation of a tumor cell in a mouse body (change in volume of tumor)", "setting": "MDA-MB468 tumor", "result": "recognized"}, {"measurement": "inhibition of proliferation", "setting": "MDA-MB468; [5]", "result": "recognized"}, {"measurement": "inhibition of the activity of the receptor tyrosine kinase group", "setting": "[1]", "result": "inhibited"}]}
{"smiles": "COc1cc2ncnc(Nc3cccc(Br)c3)c2cc1OC", "note": "[PD153035]", "values": [{"measurement": "inhibition of proliferation", "setting": "MDA-MB468; [5]", "result": "recognized"}, {"measurement": "inhibition of the activity of the receptor tyrosine kinase group", "setting": "[1]", "result": "inhibited"}]}
